Data set [1] deals with HIV-IIIb. Description: Test A: Antiviral assay in MT4 cells. Format: cell-based, HIV-1. As to conditions: MT-4 cells infected with HIV-IIIb, 5 days, CellTiter-Glo; for % inhibition at 2 μM: percent inhibition of virus-induced cell killing, from dose response curve at 2 uM drug; for inhibition at 2 µM: Human immunodeficiency virus 1, IIIB, MT4, 120 h, read-out: % inhibition at 2 μM, percent inhibition of virus-induced cell killing, from dose response curve at 2 uM drug. Background: Cellular ATP, detected with luciferase, serves as a proxy for viable cell number.

Data set [2] concerns MT-4 cells. Description: in vitro. Conditions: uninfected MT-4 cells, same protocol as Test A, 5 days, CellTiter-Glo. Summed up:
(§1)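 Cytoprotection read-out: CellTiter-Glo chemiluminescence after 5 days at 37 °C of HIV-IIIb-infected MT-4 cells (m.o.i. 0.003) with compound in 10-point 3-fold dilutions, quadruplicate, 10% FBS. Cytotoxicity (CC50) measured identically without virus.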

Data set [3] can be described thus: in vitro. As to conditions: human, uninfected MT-4 cells, CC50 (nM), same protocol as Test A, CellTiter-Glo. Summed up:
as §1

As a reminder, the % inhibition is the change of the read-out against control, counted positive when it falls. The CC50 is the concentration at which the toxic effect on the cells reaches its halfway point. On to `O=C(N[C@@H](Cc1cc(F)cc(F)c1)c1ncccc1-c1ccc(Cl)cc1)C(c1c[nH]c2ccc(F)cc12)C(F)(F)F` (single isomer, unassigned) [Example 36G], for which, in data set [1], the “% inhibition at 2 μM” value came to 0%. The same compound showed a CC50 in data set [2] of 6.93 µM.

Take `NC(=O)c1cc(-c2cccnc2[C@H](Cc2cc(F)cc(F)c2)NC(=O)Cn2nc(C(F)(F)F)c3c2[C@H]2C[C@H]2C3)ccc1F` (single isomer, unassigned) [Example 186]: the “% inhibition at 2 μM” value in data set [1] is reported as 80%. The midpoint of cytotoxicity in data set [2], the CC50, lay at 16.8 µM.

With `NC(=O)c1cc(-c2cccnc2[C@H](Cc2cc(F)cc(F)c2)NC(=O)Cn2nc(C(F)F)c3c2CC2CC32)ccc1F` (single isomer, unassigned) [Example 249], the “% inhibition at 2 μM” value in data set [1] was 100%. The compound also yielded a CC50 in data set [2] of 23.4 µM.

As to `O=C(Cn1nc(C(F)F)c2c1C1CC1CC2)NC(Cc1cc(F)cc(F)c1)c1ncncc1-c1cnc2[nH]ccc2c1` (single isomer, unassigned) [Example 347], in data set [1], the “% inhibition at 2 μM” value is 1%. Moreover, in data set [2], the CC50 is 19.4 µM.

In the case of `O=C(Cn1nc(C(F)F)c2c1C1CC1CC2)NC(Cc1cc(F)cc(F)c1)c1ncncc1-c1cnc2[nH]ccc2c1` (single isomer, unassigned) [Example 348], the “% inhibition at 2 μM” value in data set [1] is listed as 103%. This compound gave a half-maximal cytotoxic concentration (CC50) in data set [2] of 14.2 µM.

Take `CCC(C(=O)N[C@@H](Cc1cc(F)cc(F)c1)c1ncccc1-c1ccc(F)c(C(N)=O)c1)n1nc(C(F)F)cc1C(F)F` (single isomer, unassigned) [Example 484]: the “% inhibition at 2 μM” value in data set [1] was 25%. The 50% cytotoxic concentration (CC50) in data set [2] is 27.4 µM.

As for `CCCCC(C(=O)N[C@@H](Cc1cc(F)cc(F)c1)c1ncccc1-c1ccc(F)c(C(N)=O)c1)n1ccc(C(F)(F)F)n1` (single isomer, unassigned) [Example 488], the “% inhibition at 2 μM” value in data set [1] was determined as 8%. This compound came in with a CC50 in data set [2] of 12.4 µM.

Consider `CCC(C(=O)N[C@@H](Cc1cc(F)cc(F)c1)c1ncccc1-c1ccc(F)c(C(N)=O)c1)n1nc(C(F)(F)F)c2c1CCCC2` (single isomer, unassigned) [Example 531], for which the “% inhibition at 2 μM” value in data set [1] was 98%. The compound also showed a CC50 in data set [2] of 7.4 µM.

Regarding `CCC(C(=O)N[C@@H](Cc1cc(F)cc(F)c1)c1ncccc1-c1ccc(F)c(C(N)=O)c1)n1nc(C(F)(F)F)c2c1CCCC2` (single isomer, unassigned) [Example 532], the “% inhibition at 2 μM” value in data set [1] was found to be 9%. Also, the CC50 in data set [2] was determined as 12.2 µM.

Regarding `NC(=O)c1cc(-c2cccnc2[C@H](Cc2cc(F)cc(F)c2)NC(=O)C(c2ccccc2)C2CCCC2)ccc1F` (single isomer, unassigned) [Example 552], the “% inhibition at 2 μM” value in data set [1] came out at 8%. The 50% cytotoxic concentration (CC50) in data set [2] was 11 µM.

In the case of `CCC(C(=O)N[C@@H](Cc1cc(F)cc(F)c1)c1ncccc1-c1ccc(F)c(C(N)=O)c1)n1cc(C(F)(F)F)cn1` (single isomer, unassigned) [Example 566], the “% inhibition at 2 μM” value in data set [1] is on record as 3%. Further, in data set [2], the half-maximal cytotoxic concentration (CC50) came to 23.7 µM.

Consider `Cc1cc2ncn(C(CC(F)(F)F)C(=O)N[C@@H](Cc3cc(F)cc(F)c3)c3ncccc3-c3ccc(F)c(C(N)=O)c3)c2cc1C` (single isomer, unassigned) [Example 571], for which, in data set [1], the “% inhibition at 2 μM” value was determined as 2%. For the same compound, the cytotoxic concentration (CC50) in data set [2] is 34.8 µM.

In the case of `CCC(C(=O)N[C@@H](Cc1cc(F)cc(F)c1)c1ncccc1-c1ccc(F)c(C(N)=O)c1)n1ccc(C(F)(F)F)n1` (single isomer, unassigned) [Example 573], the “% inhibition at 2 μM” value in data set [1] worked out at 18%. The half-maximal cytotoxic concentration (CC50) in data set [2] was 30.1 µM.

Consider `CC(C)CC(C(=O)N[C@@H](Cc1cc(F)cc(F)c1)c1ncccc1-c1ccc(F)c(C(N)=O)c1)n1ccc(C(F)(F)F)n1` (single isomer, unassigned) [Example 582], for which the “% inhibition at 2 μM” value in data set [1] was 5%. The compound further yielded a CC50 in data set [2] of 14.4 µM.

`CCC(C(=O)N[C@@H](Cc1cc(F)cc(F)c1)c1ncccc1-c1ccc(F)c(C(N)=O)c1)n1ccnc1C(C)C` (single isomer, unassigned) [Example 586]: in data set [1], the “% inhibition at 2 μM” value stood at 1%. Further, the CC50 in data set [2] is above 53.2 µM.

Consider `CN(C)C(C(=O)N[C@@H](Cc1cc(F)cc(F)c1)c1ncccc1-c1ccc(F)c(C(N)=O)c1)c1ccc(F)cc1` (single isomer, unassigned) [Example 590], for which, in data set [1], the “% inhibition at 2 μM” value was found to be 13%. This compound showed a cytotoxic concentration (CC50) in data set [2] of 38.6 µM.

Regarding `CC12CCC(c3c(C(F)(F)F)nn(CC(=O)N[C@@H](Cc4cc(F)cc(F)c4)c4ncccc4-c4ccc(F)c(C(N)=O)c4)c31)C2(C)C` (stereo partly drawn) [Example 93B, (S)-5-(2-(2-(3,5-difluorophenyl)-1-(2-(D-4,5,6,7-Tetrahydro-3-trifluoromethyl-7,8,8-trimethyl-1H-4,7-(methano)indazol-1-yl)acetamido)ethyl)pyridin-3-yl)-2-fluorobenzamide], the “% inhibition at 2 μM” value in data set [1] is listed as 0%. The CC50 in data set [2] amounted to 8.14 µM.

In the case of `NC(=O)c1cc(-c2cccnc2[C@H](Cc2cc(F)cc(F)c2)NC(=O)Cn2nc(C(F)(F)F)c3c2C(O)C2CC32)ccc1F` (stereo partly drawn) [Example 155, 5-(2-((1S)-2-(3,5-difluorophenyl)-1-(2-(5-hydroxy-3-(trifluoromethyl)-3b,4,4a,5-tetrahydro-1H-cyclopropa[3,4]cyclopenta[1,2-c]pyrazol-1-yl)acetamido)ethyl)pyridin-3-yl)-2-fluorobenzamide], the “% inhibition at 2 μM” value in data set [1] was 97%. In data set [2], this compound displayed a CC50 of 37 µM.

For the compound `NC(=O)c1cc(-c2cccnc2[C@H](Cc2cc(F)cc(F)c2)NC(=O)Cn2nc(C(F)(F)F)c3c2C(O)C2CC32)ccc1F` (stereo partly drawn) [Example 156, 5-(2-((1S)-2-(3,5-difluorophenyl)-1-(2-(5-hydroxy-3-(trifluoromethyl)-3b,4,4a,5-tetrahydro-1H-cyclopropa[3,4]cyclopenta[1,2-c]pyrazol-1-yl)acetamido)ethyl)pyridin-3-yl)-2-fluorobenzamide], the “% inhibition at 2 μM” value in data set [1] worked out at 30%. Besides, half-maximal cytotoxicity in data set [2] (CC50) was put at 39.2 µM.

For `NC(=O)c1cc(-c2cccnc2[C@H](Cc2cc(F)cc(F)c2)NC(=O)Cn2nc(C(F)F)c3c2C2CC2C3)ccc1F` (stereo partly drawn) [Example 163C, 5-(2-((1S)-1-(2-(3-(difluoromethyl)-4,4-a,5,5a-tetrahydro-1H-cyclopropa[4,5]cyclopenta[1,2-c]pyrazol-1-yl)acetamido)-2-(3,5-difluorophenyl)ethyl)pyridin-3-yl)-2-fluorobenzamide], the “% inhibition at 2 μM” value in data set [1] is given as 105%. Also, the CC50 in data set [2] came to 27.4 µM.

In general, inhibition refers to the drop in the measured response relative to a control, in per cent. In the case of `NC(=O)c1cccc(-c2cccnc2[C@H](Cc2cc(F)cc(F)c2)NC(=O)Cn2ccc3cc(F)c(F)cc32)c1` [Example 594B, (S)-3-(2-(1-(2-(5,6-difluoro-1H-indol-1-yl)acetamido)-2-(3,5-difluorophenyl)ethyl)pyridin-3-yl)benzamide], the inhibition at 2 µM in data set [1] stood at 12%. The same compound returned a CC50 at 5 days in data set [3] of 13400 nM.

As to `O=C(Cn1nc(C(F)(F)F)c2c1CC1CC21)N[C@@H](Cc1cc(F)cc(F)c1)c1ncccc1-c1cnc2[nH]ccc2c1` (stereo partly drawn) [Example 595, N—((S)-1-(3-(1H-pyrrolo[2,3-b]pyridin-5-yl)pyridin-2-yl)-2-(3,5-difluorophenyl)ethyl)-2-(3-(trifluoromethyl)-3b,4,4a,5-tetrahydro-1H-cyclopropa[3,4]cyclopenta[1,2-c]pyrazol-1-yl)acetamide], the inhibition at 2 µM in data set [1] worked out at 99%. In data set [3], this compound returned a cytotoxic concentration (CC50) at 5 days of 12700 nM.

`NC(=O)c1cccc(-c2cccnc2[C@H](Cc2cc(F)cc(F)c2)NC(=O)Cc2c[nH]c3ccc(C(F)(F)F)cc23)c1` [Example 596, (S)-3-(2-(2-(3,5-difluorophenyl)-1-(2-(5-(trifluoromethyl)-1H-indol-3-yl)acetamido)ethyl)pyridin-3-yl)benzamide]: in data set [1], the inhibition at 2 µM was found to be 96%. In data set [3], this compound displayed a 50% cytotoxic concentration (CC50) at 5 days of 10900 nM.

Consider `Cc1[nH]c2ccc(F)cc2c1CC(=O)N[C@@H](Cc1cc(F)cc(F)c1)c1ncccc1-c1ccc(Cl)cc1` [Example 597, (S)—N-(1-(3-(4-chlorophenyl)pyridin-2-yl)-2-(3,5-difluorophenyl)ethyl)-2-(5-fluoro-2-methyl-1H-indol-3-yl)acetamide], for which, in data set [1], the inhibition at 2 µM was found to be 89%. Also, the 50% cytotoxic concentration (CC50) at 5 days in data set [3] was determined as 8650 nM.

Consider `COC1CN(C(=O)c2cc(C(C)C)nn2CC(=O)N[C@@H](Cc2cc(F)cc(F)c2)c2ncccc2-c2ccc(F)c(C(N)=O)c2)C1` [Example 598, (S)-5-(2-(2-(3,5-difluorophenyl)-1-(2-(3-isopropyl-5-(3-methoxyazetidine-1-carbonyl)-1H-pyrazol-1-yl)acetamido)ethyl)pyridin-3-yl)-2-fluorobenzamide], for which, in data set [1], the inhibition at 2 µM came out at 3%. The cytotoxic concentration (CC50) at 5 days in data set [3] is above 53200 nM.

On to `NC(=O)c1cc(-c2cccnc2[C@H](Cc2cc(F)cc(F)c2)NC(=O)Cn2c(C(F)(F)F)cc3ccccc32)ccc1F` [Example 599, (S)-5-(2-(2-(3,5-difluorophenyl)-1-(2-(2-(trifluoromethyl)-1H-indol-1-yl)acetamido)ethyl)pyridin-3-yl)-2-fluorobenzamide], for which, in data set [1], the inhibition at 2 µM worked out at 2%. In data set [3], the CC50 at 5 days turned out to be 31600 nM.

`Cc1nc2n(CC(=O)N[C@@H](Cc3cc(F)cc(F)c3)c3ncccc3-c3ccc(F)c(C(N)=O)c3)c3ccccc3n2n1` [Example 600, (S)-5-(2-(2-(3,5-difluorophenyl)-1-(2-(2-methyl-4H-benzo[4,5]imidazo[1,2-b][1,2,4]triazol-4-yl)acetamido)ethyl)pyridin-3-yl)-2-fluorobenzamide]: in data set [1], the inhibition at 2 µM stood at 9%. The CC50 at 5 days in data set [3] is above 53200 nM.

For `COc1cccc(CC(=O)N[C@@H](Cc2cc(F)cc(F)c2)c2ncccc2-c2cccc(C(N)=O)c2)c1` [Example 601, (S)-3-(2-(2-(3,5-difluorophenyl)-1-(2-(3-methoxyphenyl)acetamido)ethyl)pyridin-3-yl)benzamide], the inhibition at 2 µM in data set [1] was 22%. Moreover, the midpoint of cytotoxicity in data set [3], the CC50 at 5 days, lay at 41900 nM.

These data come from patent US9540343B2 (Gilead Sciences, Inc., priority 2011, dated 2017).
